According to PubChem BioAssay (NCI):
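A five-concentration, 48-hour dose response in 96-well plates underlies each endpoint, interpolated linearly between surrounding concentrations. GI50: concentration for 50% inhibition of growth. The concentration for full growth arrest is given as TGI.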

How the values were obtained:
Test in all cases: inhibition of tumour cell growth, NCI panel, 48 h
SN12C renal = tested on: SN12C renal
MDA-MB-435 = tested on: MDA-MB-435
OVCAR-5 ovarian = tested on: OVCAR-5 ovarian
U251 CNS = tested on: U251 CNS
NCI-H226 lung = tested on: NCI-H226 lung
HCC-2998 colon = tested on: HCC-2998 colon
PC-3 prostate = tested on: PC-3 prostate
HS 578T breast = tested on: HS 578T breast
SF-539 CNS = tested on: SF-539 CNS
HCT-116 colon = tested on: HCT-116 colon
OVCAR-3 ovarian = tested on: OVCAR-3 ovarian
RPMI-8226 leukemia = tested on: RPMI-8226 leukemia
HOP-92 NSCLC = tested on: HOP-92 NSCLC
SF-295 CNS = tested on: SF-295 CNS
NCI-H23 lung = tested on: NCI-H23 lung
MOLT-4 leukemia = tested on: MOLT-4 leukemia
K-562 leukemia = tested on: K-562 leukemia
SNB-19 CNS = tested on: SNB-19 CNS
HCT-15 colon = tested on: HCT-15 colon
NCI/ADR-RES ovarian = tested on: NCI/ADR-RES ovarian
UO-31 renal = tested on: UO-31 renal
MCF7 breast = tested on: MCF7 breast
CCRF-CEM leukemia = tested on: CCRF-CEM leukemia
HL-60(TB) leukemia = tested on: HL-60(TB) leukemia
SK-MEL-2 melanoma = tested on: SK-MEL-2 melanoma
SNB-75 CNS = tested on: SNB-75 CNS
MDA-N = tested on: MDA-N
SF-268 CNS = tested on: SF-268 CNS
SK-MEL-28 melanoma = tested on: SK-MEL-28 melanoma
IGROV1 ovarian = tested on: IGROV1 ovarian
A549 NSCLC = tested on: A549 NSCLC
A498 renal = tested on: A498 renal
OVCAR-8 ovarian = tested on: OVCAR-8 ovarian
MALME-3M melanoma = tested on: MALME-3M melanoma
SK-MEL-5 melanoma = tested on: SK-MEL-5 melanoma
UACC-257 melanoma = tested on: UACC-257 melanoma
NCI-H460 lung = tested on: NCI-H460 lung
OVCAR-4 ovarian = tested on: OVCAR-4 ovarian
T-47D breast = tested on: T-47D breast
HT29 colon = tested on: HT29 colon
COLO 205 colon = tested on: COLO 205 colon
SK-OV-3 ovarian = tested on: SK-OV-3 ovarian
DU-145 prostate = tested on: DU-145 prostate
UACC-62 melanoma = tested on: UACC-62 melanoma
BT-549 breast = tested on: BT-549 breast
KM12 colon = tested on: KM12 colon
M14 melanoma = tested on: M14 melanoma
EKVX NSCLC = tested on: EKVX NSCLC
786-0 renal = tested on: 786-0 renal
MDA-MB-231 breast = tested on: MDA-MB-231 breast
NCI-H522 lung = tested on: NCI-H522 lung
RXF 393 renal = tested on: RXF 393 renal
ACHN renal = tested on: ACHN renal
LOX IMVI melanoma = tested on: LOX IMVI melanoma
SW-620 colon = tested on: SW-620 colon
CAKI-1 renal = tested on: CAKI-1 renal
TK-10 renal = tested on: TK-10 renal
HOP-62 NSCLC = tested on: HOP-62 NSCLC
SR leukemia = tested on: SR leukemia

`CCc1cc(Cc2cc(CC)c(NC(=O)C(=O)CC(=O)c3sc(-c4cccnc4)nc3C)c(CC)c2)cc(CC)c1NC(=O)C(=O)CC(=O)c1sc(-c2cccnc2)nc1C` gave a TGI (SN12C renal) of over 100 µM, a TGI (MDA-MB-435) of over 100 µM and a TGI (OVCAR-5 ovarian) of over 100 µM. It also gave a TGI (U251 CNS) of over 100 µM, a TGI (NCI-H226 lung) of over 100 µM and a TGI (HCC-2998 colon) of over 100 µM. It also gave a TGI (PC-3 prostate) of over 100 µM, a TGI (HS 578T breast) of over 100 µM and a TGI (SF-539 CNS) of over 100 µM. The TGI (HCT-116 colon) was over 100 µM, the TGI (OVCAR-3 ovarian) was over 100 µM and the TGI (RPMI-8226 leukemia) was over 100 µM. It also gave a TGI (HOP-92 NSCLC) of over 100 µM, a TGI (SF-295 CNS) of over 100 µM and a TGI (NCI-H23 lung) of over 100 µM. For the same molecule, the TGI (MOLT-4 leukemia) was over 100 µM, the TGI (K-562 leukemia) was over 100 µM and the TGI (SNB-19 CNS) was over 100 µM. For the same molecule, the TGI (HCT-15 colon) was over 100 µM, the TGI (NCI/ADR-RES ovarian) was over 100 µM and the TGI (UO-31 renal) was over 100 µM. For the same molecule, the TGI (MCF7 breast) was over 100 µM, the TGI (CCRF-CEM leukemia) was over 100 µM and the TGI (HL-60(TB) leukemia) was over 100 µM. The TGI (SK-MEL-2 melanoma) was over 100 µM, the TGI (SNB-75 CNS) was over 100 µM and the TGI (MDA-N) was over 100 µM. The TGI (SF-268 CNS) was over 100 µM, the TGI (SK-MEL-28 melanoma) was over 100 µM and the TGI (IGROV1 ovarian) was over 100 µM. For the same molecule, the TGI (A549 NSCLC) was over 100 µM, the TGI (A498 renal) was over 100 µM and the TGI (OVCAR-8 ovarian) was over 100 µM. For the same molecule, the TGI (MALME-3M melanoma) was over 100 µM, the TGI (SK-MEL-5 melanoma) was over 100 µM and the TGI (UACC-257 melanoma) was over 100 µM. For the same molecule, the TGI (NCI-H460 lung) was over 100 µM, the TGI (OVCAR-4 ovarian) was over 100 µM and the TGI (T-47D breast) was over 100 µM. It also gave a TGI (HT29 colon) of over 100 µM, a TGI (COLO 205 colon) of over 100 µM and a TGI (SK-OV-3 ovarian) of over 100 µM. It also gave a TGI (DU-145 prostate) of over 100 µM, a TGI (UACC-62 melanoma) of over 100 µM and a TGI (BT-549 breast) of over 100 µM. For the same molecule, the TGI (KM12 colon) was over 100 µM, the TGI (M14 melanoma) was over 100 µM and the TGI (EKVX NSCLC) was over 100 µM. For the same molecule, the TGI (786-0 renal) was over 100 µM, the TGI (MDA-MB-231 breast) was over 100 µM and the TGI (NCI-H522 lung) was over 100 µM. For the same molecule, the TGI (RXF 393 renal) was over 100 µM, the TGI (ACHN renal) was over 100 µM and the TGI (LOX IMVI melanoma) was over 100 µM. The TGI (SW-620 colon) was over 100 µM.
`N#Cc1ccccc1CSc1ncnc2nc[nH]c12` gave a GI50 (HS 578T breast) of 51.9 µM, a GI50 (RPMI-8226 leukemia) of 53.1 µM and a GI50 (HOP-92 NSCLC) of 28.6 µM. The GI50 (MOLT-4 leukemia) was 80.3 µM, the GI50 (K-562 leukemia) was 67.2 µM and the GI50 (NCI/ADR-RES ovarian) was 60.4 µM. The GI50 (UO-31 renal) was 47.4 µM, the GI50 (SNB-75 CNS) was 9.8 µM and the TGI (SNB-75 CNS) was 67.1 µM. It also gave a GI50 (MDA-N) of 83.3 µM, a GI50 (SK-MEL-5 melanoma) of 74.3 µM and a GI50 (UACC-257 melanoma) of 44.5 µM. It also gave a GI50 (NCI-H460 lung) of 83.3 µM, a GI50 (UACC-62 melanoma) of 77.2 µM and a GI50 (BT-549 breast) of 56.6 µM. It also gave a GI50 (EKVX NSCLC) of 90.1 µM, a GI50 (MDA-MB-231 breast) of 51 µM and a GI50 (RXF 393 renal) of 94.9 µM.
For `c1ccc(CNc2nncc3[nH]cnc23)cc1`, the TGI (SN12C renal) was over 100 µM, the TGI (MDA-MB-435) was over 100 µM and the TGI (OVCAR-5 ovarian) was over 100 µM. For the same molecule, the TGI (U251 CNS) was over 100 µM, the TGI (NCI-H226 lung) was over 100 µM and the TGI (HCC-2998 colon) was over 100 µM. The TGI (PC-3 prostate) was over 100 µM, the TGI (CAKI-1 renal) was over 100 µM and the TGI (SF-539 CNS) was over 100 µM. It also gave a TGI (HCT-116 colon) of over 100 µM, a TGI (OVCAR-3 ovarian) of over 100 µM and a TGI (RPMI-8226 leukemia) of over 100 µM. It also gave a TGI (HOP-92 NSCLC) of over 100 µM, a TGI (SF-295 CNS) of over 100 µM and a TGI (NCI-H23 lung) of over 100 µM. For the same molecule, the TGI (MOLT-4 leukemia) was over 100 µM, the TGI (K-562 leukemia) was over 100 µM and the TGI (HCT-15 colon) was over 100 µM. For the same molecule, the TGI (NCI/ADR-RES ovarian) was over 100 µM, the TGI (UO-31 renal) was over 100 µM and the TGI (MCF7 breast) was over 100 µM. The TGI (CCRF-CEM leukemia) was over 100 µM, the TGI (HL-60(TB) leukemia) was over 100 µM and the TGI (SK-MEL-2 melanoma) was over 100 µM. The TGI (SNB-75 CNS) was over 100 µM, the TGI (MDA-N) was over 100 µM and the TGI (SK-MEL-28 melanoma) was over 100 µM. The TGI (IGROV1 ovarian) was over 100 µM, the TGI (A549 NSCLC) was over 100 µM and the TGI (A498 renal) was over 100 µM. For the same molecule, the TGI (TK-10 renal) was over 100 µM, the TGI (OVCAR-8 ovarian) was over 100 µM and the TGI (MALME-3M melanoma) was over 100 µM. It also gave a TGI (SK-MEL-5 melanoma) of over 100 µM, a TGI (UACC-257 melanoma) of over 100 µM and a TGI (HOP-62 NSCLC) of over 100 µM. The TGI (OVCAR-4 ovarian) was over 100 µM, the TGI (T-47D breast) was over 100 µM and the TGI (HT29 colon) was over 100 µM. The TGI (COLO 205 colon) was over 100 µM, the TGI (SK-OV-3 ovarian) was over 100 µM and the TGI (UACC-62 melanoma) was over 100 µM. The TGI (BT-549 breast) was over 100 µM, the TGI (KM12 colon) was over 100 µM and the TGI (M14 melanoma) was over 100 µM. The TGI (EKVX NSCLC) was over 100 µM, the TGI (SR leukemia) was over 100 µM and the TGI (786-0 renal) was over 100 µM. The TGI (MDA-MB-231 breast) was over 100 µM, the TGI (NCI-H522 lung) was over 100 µM and the TGI (ACHN renal) was over 100 µM. The TGI (LOX IMVI melanoma) was over 100 µM and the TGI (SW-620 colon) was over 100 µM.
`CC1CCCCNC1=S` (stereo unspecified) showed a TGI (SN12C renal) of over 10 µM, a TGI (MDA-MB-435) of over 10 µM and a TGI (OVCAR-5 ovarian) of over 10 µM. For the same molecule, the TGI (U251 CNS) was over 10 µM, the TGI (NCI-H226 lung) was over 10 µM and the TGI (PC-3 prostate) was over 10 µM. For the same molecule, the TGI (HS 578T breast) was over 10 µM, the TGI (SF-539 CNS) was over 10 µM and the TGI (OVCAR-3 ovarian) was over 10 µM. The TGI (HOP-92 NSCLC) was over 10 µM, the TGI (SF-295 CNS) was over 10 µM and the TGI (NCI-H23 lung) was over 10 µM. For the same molecule, the TGI (MOLT-4 leukemia) was over 10 µM, the TGI (K-562 leukemia) was over 10 µM and the TGI (SNB-19 CNS) was over 10 µM. It also gave a TGI (HCT-15 colon) of over 10 µM, a TGI (UO-31 renal) of over 10 µM and a TGI (MCF7 breast) of over 10 µM. For the same molecule, the TGI (CCRF-CEM leukemia) was over 10 µM, the TGI (HL-60(TB) leukemia) was over 10 µM and the TGI (SK-MEL-2 melanoma) was over 10 µM. It also gave a TGI (SNB-75 CNS) of over 10 µM, a TGI (MDA-N) of over 10 µM and a TGI (SF-268 CNS) of over 10 µM. The TGI (SK-MEL-28 melanoma) was over 10 µM, the TGI (IGROV1 ovarian) was over 10 µM and the TGI (A549 NSCLC) was over 10 µM. For the same molecule, the TGI (A498 renal) was over 10 µM, the TGI (TK-10 renal) was over 10 µM and the TGI (OVCAR-8 ovarian) was over 10 µM. For the same molecule, the TGI (MALME-3M melanoma) was over 10 µM, the TGI (SK-MEL-5 melanoma) was over 10 µM and the TGI (UACC-257 melanoma) was over 10 µM. For the same molecule, the TGI (NCI-H460 lung) was over 10 µM, the TGI (HOP-62 NSCLC) was over 10 µM and the TGI (T-47D breast) was over 10 µM. For the same molecule, the TGI (HT29 colon) was over 10 µM, the TGI (SK-OV-3 ovarian) was over 10 µM and the TGI (DU-145 prostate) was over 10 µM. For the same molecule, the TGI (UACC-62 melanoma) was over 10 µM, the TGI (BT-549 breast) was over 10 µM and the TGI (KM12 colon) was over 10 µM. The TGI (M14 melanoma) was over 10 µM, the TGI (EKVX NSCLC) was over 10 µM and the TGI (SR leukemia) was over 10 µM. The TGI (MDA-MB-231 breast) was over 10 µM, the TGI (RXF 393 renal) was over 10 µM and the TGI (ACHN renal) was over 10 µM. The TGI (LOX IMVI melanoma) was over 10 µM and the TGI (SW-620 colon) was over 10 µM.
